Measurements taken from PMC7700221, “Antiproliferative Homoleptic and Heteroleptic Phosphino Silver(I) Complexes: Effect of Ligand Combination on Their Biological Mechanism of Action” (Molecules, 2020).
Where two headings read alike, the source gives them in different places.

How the values were obtained:
A549 lung cancer cells [1] = assay: cells; conditions: Homo sapiens, A549, 72 h, read-out: IC50 (µM) ± S.D. A549
[2] = test system: MCF-7 breast cancer cells; assay: cells; conditions: Homo sapiens, MCF7, 72 h, read-out: IC50 (µM) ± S.D. MCF-7
[3] = test system: HCT-15 colon cancer cells; assay: cells; conditions: Homo sapiens, HCT-15, 72 h, read-out: IC50 (µM) ± S.D. HCT-15
[4] = test system: A431 cervical carcinoma cells; assay: cells; conditions: Homo sapiens, A-431, 72 h, read-out: IC50 (µM) ± S.D. A431
A375 melanoma cells [5] = assay: cells; conditions: Homo sapiens, A-375, 72 h, read-out: IC50 (µM) ± S.D. A375
[6] = test system: BxPC3 pancreatic cancer cells; assay: cells; conditions: Homo sapiens, BXPC-3, 72 h, read-out: IC50 (µM) ± S.D. BxPC3
[7] = test system: 2008 cells (cellular DNA fragmentation); conditions: 6 h
Method: About 4 × 10^4 2008 cells were seeded in 25 cm^2 flasks in growth medium (6 mL). After 24 h, cells were incubated for 3h with 2.5µM of tested compounds. Cells were washed twice with cold PBS, harvested, centrifuged, and DNA fragmentation was measured by the alkaline comet assay. Low melting point agarose, 300 μL (Trevigen Inc., Gaithersburg, MD, USA) was heated to 37 °C and combined with 2 × 10^5 cells per mL cell suspension. Each well of a 20-well CometSlide was filled with 30 μL of the cell/agarose suspension. The slides were placed in a 4 °C refrigerator in the dark for 15 min to solidify. Slides were then immersed in 50 mL of pre-chilled lysis solution containing Trizma base, Triton X-100, DMSO and left at 4 °C for 30 min to facilitate cell membrane and histone removal. After draining excess liquid, the slides were transferred to 50 mL of freshly prepared (same day) alkaline DNA unwinding solution, (200 mmol/L NaOH, 1 mmol/L EDTA, pH > 13) and incubated at room temperature in the dark for 20 min. After the unwinding step, electrophoresis was performed at 21 V for 30 min. Slides were then rinsed with distilled water and fixed 5 min in 70% ethanol. Slides were dried and stained 5 min at 4 °C with SYBR Green I (Trevigen, Inc.) diluted 1:10000 in 10 mmol/L Tris pH 7.5, 1 mmol/L EDTA, drained to remove excess staining solution and thoroughly dried at room temperature in the dark. Micrographs were taken with a Zeiss LSM-800 confocal microscope (Zeiss, Oberkochen, Germany).

TrxR = conditions: 2008 cells, 18 h, 2.5 µM
Method: TrxR inhibition was also evaluated in 2008 cells treated for 18 h with equimolar concentrations (2.5 µM) of all phosphino silver(I) derivatives and of AgNO3.
The 2008 cells were incubated for 18 h with tested compounds. Subsequently, cells were washed twice with Phosphate Buffer Solution (PBS) and lysed. TrxR activity was tested by measuring NADPH-dependent reduction of DTNB and glutathione peroxidase (GPx) activity was followed at 340 nm.

human TrxR1 = human TrxR1 (Homo sapiens, UniProt Q16881); conditions: isolated human TrxR1
human TrxR1, sequence (Q16881 151-649 limits assumed): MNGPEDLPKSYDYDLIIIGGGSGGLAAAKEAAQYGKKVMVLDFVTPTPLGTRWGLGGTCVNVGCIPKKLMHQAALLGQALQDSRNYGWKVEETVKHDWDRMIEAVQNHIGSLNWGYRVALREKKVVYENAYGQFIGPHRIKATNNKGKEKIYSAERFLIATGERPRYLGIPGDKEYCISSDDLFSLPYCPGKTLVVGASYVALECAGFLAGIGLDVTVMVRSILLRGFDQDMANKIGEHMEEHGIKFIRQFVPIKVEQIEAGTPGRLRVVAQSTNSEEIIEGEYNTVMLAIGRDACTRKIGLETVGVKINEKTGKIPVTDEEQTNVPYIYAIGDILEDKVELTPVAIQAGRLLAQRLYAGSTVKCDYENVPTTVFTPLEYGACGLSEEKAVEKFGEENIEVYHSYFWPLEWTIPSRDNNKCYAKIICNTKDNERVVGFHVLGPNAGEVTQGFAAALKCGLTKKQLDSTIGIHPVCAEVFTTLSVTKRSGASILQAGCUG

A375 melanoma cells [8] = conditions: read-out: IC50 (µM) ± S.D. A375; 72 h, MTT test
[9] = test system: 2008 ovarian cancer cells; conditions: read-out: IC50 (µM) ± D.S. 2008; 72 h, MTT test, cisplatin-sensitive cells
[10] = test system: C13* cisplatin-resistant ovarian cancer cells
[11] = test system: HCT-15 colon cancer cells; conditions: for times more effective than cisplatin, HCT-15: HCT-15 cells, 72 h MTT, versus cisplatin
[12] = test system: MCF-7 breast cancer cells; conditions: read-out: IC50 (µM) ± S.D. MCF-7; 72 h, MTT test
[13] = test system: A431 cervical carcinoma cells; conditions: read-out: IC50 (µM) ± S.D. A431; 72 h, MTT test
[14] = test system: human cancer cell line panel; conditions: read-out: average IC50; average over the six cancer cell lines, 72 h MTT
A549 lung cancer cells [15] = conditions: read-out: IC50 (µM) ± S.D. A549; 72 h, MTT test
[16] = test system: BxPC3 pancreatic cancer cells; conditions: read-out: IC50 (µM) ± S.D. BxPC3; 72 h, MTT test
2008 cells [17] = conditions: IC50 of compounds
Method: The production of ROS was measured in 2008 cells (10^4 per well) grown for 24 h in a 96-well plate in RPMI medium without phenol red (Sigma Chemical Co.). Cells were then washed with PBS and loaded with 10 μM 5-(and-6)-chloromethyl-2′,7′-dichlorodihydrofluorescein diacetate acetyl ester (CM–H2DCFDA) (Molecular Probes-Invitrogen, Eugene, OR) for 25 min, in the dark. Afterwards, cells were washed with PBS and incubated with increasing concentrations of tested compounds. Fluorescence increase was estimated utilizing the wavelengths of 485 nm (excitation) and 527 nm (emission) in a Fluoroskan Ascent FL (Labsystems, Finland) plate reader.
Error bars indicate S.D. (B) effect of silver(I) compounds on hydrogen peroxide formation in 2008 cells. 2008 cells were pre-incubated in PBS/10 mM glucose medium for 20 min at 37 °C in presence of 10 µM CM-DCFDA and then treated with IC50 of silver(I) compounds.

2008 cells [18] = conditions: 48 h, IC50 concentrations
Method: About 10^6 2008 cells were seeded in 24-well plates and, after 24 h incubation, were treated with the tested compounds and incubated for additional 24 h. Cells were then washed with cold PBS, harvested and directly fixed with 1.5% glutaraldehyde buffer with 0.2 M sodium cacodylate, pH 7.4. After washing with buffer and postfixation with 1% OsO4 in 0.2 M cacodylate buffer, specimens were dehydrated and embedded in epoxy resin (Epon Araldite). Sagittal serial sections (1 μm) were counterstained with toluidine blue; thin sections (90 nm) were given contrast by staining with uranyl acetate and lead citrate. Micrographs were taken with a Hitachi H-600 electron microscope (Hitachi, Tokyo, Japan) operating at 75 kV.

2008 cells [19] = conditions: IC50 concentrations, 24 or 48 h
Method: In particular, 2008 cells were treated for 24 or 48 h with IC50 concentrations of tested Ag(I) complexes, and the percentage of cells with hypopolarized mitochondrial membrane potential was determined fluorimetrically by means of the Mito-ID® Membrane Potential Kit.
The ΔΨ was assayed using the Mito-ID® Membrane Potential Kit according to the manufacturer’s instructions (Enzo Life Sciences, Farmingdale, NY). Briefly, 2008 cells (8 × 10^3 per well) were seeded in 96-well plates; after 24 h, cells were washed with PBS and loaded with Mito-ID Detection Reagent for 30 min at 37 °C in the dark. Afterwards, cells were incubated with increasing concentrations of tested complexes. Fluorescence intensity was estimated using a plate reader (Fluoroskan Ascent FL, Labsystems, Finland) at 490 (excitation) and 590 nm (emission). Carbonyl cyanide m-chlorophenyl hydrazone (CCCP, 4 μM), a chemical inhibitor of the oxidative phosphorylation, was used as positive control.
2008 cells were treated for 24 h or 48 h with IC50 concentrations of tested complexes or CCCP (3 μM). The percentage of cells with hypopolarized mitochondrial membrane potential was determined by Mito-ID® Membrane Potential Kit. Data are the means of three independent experiments. Error bars indicate S.D.

caspase-9 = conditions: 2008 cells, IC50 concentration, 24 h
caspase-9, sequence (P55211 whole entry): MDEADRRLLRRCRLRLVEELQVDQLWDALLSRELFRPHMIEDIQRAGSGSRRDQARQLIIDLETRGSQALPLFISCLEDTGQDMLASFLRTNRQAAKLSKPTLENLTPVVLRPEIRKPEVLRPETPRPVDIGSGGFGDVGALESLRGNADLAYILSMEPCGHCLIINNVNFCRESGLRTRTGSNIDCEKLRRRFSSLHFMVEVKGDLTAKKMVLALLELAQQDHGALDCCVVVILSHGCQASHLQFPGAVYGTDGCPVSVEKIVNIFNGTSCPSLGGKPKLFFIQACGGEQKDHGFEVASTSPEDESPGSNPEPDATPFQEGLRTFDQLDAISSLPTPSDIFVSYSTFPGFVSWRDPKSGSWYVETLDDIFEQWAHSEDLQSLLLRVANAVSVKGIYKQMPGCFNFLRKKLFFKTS
Method: (§1) The 2008 cells (1 × 10^6) were treated for 24 h with the IC50 doses of tested compounds, harvested and homogenized in a lysis buffer [1% Triton X-100, 320 nM sucrose, 5 mM EDTA, 10 mM Tris–HCl and 2 mM DTT (1,4-dithio-DL-threitol) buffer (pH 7.6)]. Protein aliquots (100 μg) were stained at 37 °C for 60 min with fluorescent caspase-3 (N-Acetyl-Asp-Glu-Val-Asp-AMC, AMC = 7-amino-4-methylcoumarin) or caspase-9 (Ac-Leu-Glu-His-Asp-AMC) substrate (Sigma Co.). Substrate hydrolysis was measured after 60 min by monitoring the release of AMC using a spectrofluorometer (excitation at 370 nm, emission at 460 nm).
(§2) Effect of silver(I) compounds on caspase-3 and -9 activation. […] Data are the means of at least three independent experiments. Error bars indicate SD.

2008 cells [20] = conditions: 24 h or 48 h
Method: The 2008 cells (2 × 10^5) were seeded in a six-well plate in growth medium (4 mL). After 24 h, cells were incubated for 24 h with increasing concentrations of tested compounds. Subsequently, the thiol content was measured as previously described [43].
(A) Sulfhydryl content in 2008-treated cancer cells incubated for 24 h or 48 h with tested silver(I) compounds. The sulfhydryl group amount was determined by the DTNB assay.

caspase-3 = conditions: 2008 cells, IC50, 24 or 48 h
Method: as §1, §2

Method for CT-DNA: From the observed spectra, KSV was calculated according to the classical Stern–Volmer equation (Figure S16B).
The UV–Vis absorption spectroscopic studies and the DNA binding experiments were performed at
Experiments were performed by maintaining a fixed CT-DNA concentration (30
Sample solutions were scanned in the range
200−500 nm on a computer-controlled Varian Coulter DU 800 spectrophotometer.
EB–DNA competition experiments
The ethidium bromide (EB) displacement experiments were performed by titration with aliquots of
tested compounds of a Tris buffer solution containing 10 μM DNA (8.0–15 kbp) and 0.33 μM EB
(saturated binding levels). The fluorescence spectrum of the solution was obtained by exciting at 520
nm and measuring the emission spectra at 587 nm.
determined from the slope of the diagram F0/F versus r.

| Compound | IC50 (A549 lung cancer cells [1]) | IC50 [2] | IC50 [3] | IC50 [4] | IC50 (A375 melanoma cells [5]) | IC50 [6] | reduction of total cellular TrxR activity (TrxR) | times more effective than cisplatin, HCT-15 [11] | further results |
| --- | --- | --- | --- | --- | --- | --- | --- | --- | --- |
| CC(=O)N1CN2CN(C(C)=O)CP(C2)C1 [DAPTA, 3,7-diacetyl-1,3,7-triaza-5-phosphabicyclo [3.3.1]nonane] | > 100 µM | 85.3 ± 4 µM | 67.1 ± 3.1 µM | > 100 µM | > 100 µM | 89.5 ± 4.1 µM |  |  |  |
| N#CCCP(CCC#N)CCC#N [PCN, tris(cyanoethyl)phosphine] | > 100 µM | > 100 µM | > 100 µM | > 100 µM | > 100 µM | > 100 µM |  |  |  |
| c1ccc(P(c2ccccc2)c2ccccc2)cc1 [PPh3, triphenylphosphine] | 30.1 ± 2.1 µM | 34.2 ± 3.4 µM | 54.1 ± 4.2 µM | 47.5 ± 1.1 µM | 52.3 ± 2.5 µM | 62.2 ± 2.2 µM |  |  | DNA damage in comet assay, in words [7]: scarcely effective in increasing comet tail lengths |
| C1N2CN3CN1CP(C2)C3 [PTA, 1,3,5-triaza-7-phosphaadamantane] | > 100 µM | > 100 µM | > 100 µM | > 100 µM | > 100 µM | > 100 µM |  |  |  |
| O=S1(=O)N2CN3CN1CP(C3)C2 [PTA-SO2] | > 100 µM | 69.5 ± 3.4 µM | > 100 µM | 56 ± 3.5 µM | > 100 µM | > 100 µM |  |  |  |
| AgNO3 |  |  |  |  |  |  | 12% |  | TrxR1 inhibition, in words (human TrxR1): effective in inhibiting the redox enzyme activity at nanomolar level |
| Cisplatin |  |  |  |  |  |  |  |  | IC50 (A375 melanoma cells [8]): 4 ± 1 µM; IC50 [9]: 2.3 ± 1.1 µM; RF ([10]; RF = IC50 resistant/IC50 parental cell lines (C13*/2008)): 9.5; IC50 ([10]; read-out: IC50 (µM) ± D.S. C13*, 72 h, MTT test, cisplatin-resistant cells): 21.5 ± 3 µM; IC50 ([11]; read-out: IC50 (µM) ± S.D. HCT-15, 72 h, MTT test): 15.5 ± 2.5 µM; IC50 [12]: 7.6 ± 3 µM; IC50 [13]: 2.1 ± 0.4 µM; IC50 [14]: 7.9 µM; IC50 (A549 lung cancer cells [15]): 8.4 ± 0.9 µM; IC50 [16]: 10.2 ± 1.7 µM |
| [Ag(PCN)2]BF4 [Compound 9] |  |  |  |  |  |  | about 70% | roughly 4.4 fold |  |
| [Ag(PPh3)4]BF4 [Compound 10] |  |  |  |  |  |  | about 75% | roughly 4.4 fold | basal ROS / hydrogen peroxide production (2008 cells [17]): increase in basal hydrogen peroxide formation rather similar to that obtained with antimycin; mitochondrial morphology by TEM (2008 cells [18]): mitochondria with disrupted cristae and a significant increase in volume (swelling); cells with hypopolarized mitochondrial membrane potential (2008 cells [19]): increase in the percentage of hypopolarized cells similar to that induced by reference compound carbonyl cyanide-m-chlorophenylhydrazone (CCCP); enhancement in caspase-9 activity compared to control cells (caspase-9): 2.6 fold; cellular sulfhydryl content (2008 cells [20]): lowest levels of cellular sulfhydryl groups; DNA damage in comet assay, in words [7]: barely effective in provoking DNA damage; modification of DNA absorption bands (CT-DNA): no significant modifications in DNA properties; caspase-3 activation (caspase-3): time-dependent activation of caspase-3 |
| [HB(pz)3]Ag(PPh3) [Compound 5] |  |  |  |  |  |  | about 75% | about 7 fold | basal ROS / hydrogen peroxide production (2008 cells [17]): increase in basal hydrogen peroxide formation rather similar to that obtained with antimycin; mitochondrial morphology by TEM (2008 cells [18]): mitochondria with disrupted cristae and a significant increase in volume (swelling); cells with hypopolarized mitochondrial membrane potential (2008 cells [19]): increase in the percentage of hypopolarized cells similar to that induced by reference compound carbonyl cyanide-m-chlorophenylhydrazone (CCCP); enhancement in caspase-9 activity compared to control cells (caspase-9): 3.3 fold; cellular sulfhydryl content (2008 cells [20]): lowest levels of cellular sulfhydryl groups; increase of well-formed comets ([7]; IC50 dose): about 69%; modification of DNA absorption bands (CT-DNA): slight hyperchromic effect at 263 nm; caspase-3 activation (caspase-3): time-dependent activation of caspase-3 |
